Assay results: patent publication US5393667A, “Eucaryotic NAD cyclases” (priority 1993, dated 1995)

Key:
[1] = biological target: T1, eucaryotic NAD cyclases of this invention (example: Aplysia californica NAD cyclase) (Aplysia californica, UniProt P29241); assay: Resistance of NAD cyclase to inhibitors of eucaryotic NADases; type: biochemical; details: for inhibition of NAD cyclase by inhibitor: concentration not given
T1 sequence (P29241 25-282): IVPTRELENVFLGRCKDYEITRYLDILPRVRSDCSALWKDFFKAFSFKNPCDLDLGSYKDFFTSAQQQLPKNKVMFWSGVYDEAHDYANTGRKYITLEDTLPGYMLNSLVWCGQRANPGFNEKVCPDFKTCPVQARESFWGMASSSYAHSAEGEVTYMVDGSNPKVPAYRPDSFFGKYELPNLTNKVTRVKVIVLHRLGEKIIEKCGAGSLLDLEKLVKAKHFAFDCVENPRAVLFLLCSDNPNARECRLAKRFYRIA

[2] = test system: rat liver NAD glycohydrolase; details: Moss et al., J. Biol. Chem. 257:5755-5759, 1982; cited from earlier work
[3] = biological target: T2, Aplysia californica NAD cyclase (ovotestis NADase), purified, wild type (Aplysia californica, UniProt P29241); assay: NAD cyclase velocity vs. NAD concentration ([14C]-nicotinamide release); type: biochemical
T2 construct: from tissue; host or cells: ovotestis (Aplysia)
T2 sequence (P29241 25-282): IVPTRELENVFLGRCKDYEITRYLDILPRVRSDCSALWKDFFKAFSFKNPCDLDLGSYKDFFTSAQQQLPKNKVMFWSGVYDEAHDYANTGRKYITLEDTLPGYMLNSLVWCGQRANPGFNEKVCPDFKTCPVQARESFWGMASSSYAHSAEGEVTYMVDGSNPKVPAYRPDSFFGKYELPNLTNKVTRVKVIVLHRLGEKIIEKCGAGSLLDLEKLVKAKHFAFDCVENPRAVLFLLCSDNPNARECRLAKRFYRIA
Protocol: (§1) Referring to FIG. 4, various concentrations (0.05 to 5.0 mM) of [carbonyl-^14 C]NAD (specific activity=1.6 nCi/nmol) and 5×10^-9 M ovotestis NADase were incubated in 300 mM potassium phosphate buffer (pH 7.0) at 30° C. The amount of NAD cleaved during the incubation period was determined by measuring the amount of [^14 C]-nicotinamide produced. The data was fitted to the equation f=a+b*exp(-c*x) using a nonlinear curve fitting program (SigmaPlot, version 4.0). The estimated Km of the NAD Cyclase is 0.7 mM and the Vmax is approximately 32 nmoles/minute/35 ng enzyme. This corresponds to a turnover rate of about 27,000 moles NAD/minute/mole of NAD Cyclase at 30° C.

[4] = substrate: NC(=O)c1ccc[n+]([C@@H]2O[C@H](COP(=O)([O-])OP(=O)(O)OC[C@H]3O[C@@H](n4cnc5c(N)ncnc54)[C@H](O)[C@@H]3O)[C@@H](O)[C@H]2O)c1; assay: as above; type: biochemical, Aplysia californica; details: other: 0.05 to 5.0 mM [carbonyl-14C]NAD, 5x10^-9 M enzyme, 300 mM potassium phosphate pH 7.0, 30° C., estimated by nonlinear curve fit
Protocol: as §1

In the case of `CC(=O)c1ccc[n+]([C@@H]2O[C@H](COP(=O)([O-])OP(=O)(O)OC[C@H]3O[C@@H](n4cnc5c(N)ncnc54)[C@H](O)[C@@H]3O)[C@@H](O)[C@H]2O)c1` [3-acetylpyridine adenine dinucleotide], the “inhibition of NAD cyclase by inhibitor” value [1] is reported as “resistant”.

In the case of `O[C@H](CS)[C@H](O)CS` (racemic) [DTT, dithiothreitol], the “inhibition of NAD cyclase by DTT” value ([1]; 1 mM DTT) is reported as “resistant”.

For `NC(=O)c1ccc[n+]([C@@H]2O[C@H](COP(=O)([O-])OP(=O)(O)OC[C@H]3O[C@@H](n4cnc5c(N)ncnc54)[C@H](O)[C@@H]3O)[C@@H](O)[C@H]2O)c1` [NAD, nicotinamide adenine dinucleotide], the Km [2] is given as roughly 18 µM, the Vmax ([3]; 300 mM potassium phosphate pH 7.0, 30° C.) is given as “approximately 32 nmoles/minute/35 ng enzyme” and the turnover rate ([3]; at 30° C., corresponds to Vmax) is given as “about 27,000 moles NAD/minute/mole of NAD Cyclase”.

With `NNC(=O)c1ccncc1` [isonicotinic acid hydrazide] the “inhibition of NAD cyclase by inhibitor” value [1] was “resistant”.

B1: Aplysia californica NAD cyclase (ovotestis NADase), purified, wild type (Aplysia californica) (protein)
chain: IVPTRELENVFLGRCKDYEITRYLDILPRVRSDCSALWKDFFKAFSFKNPCDLDLGSYKDFFTSAQQQLPKNKVMFWSGVYDEAHDYANTGRKYITLEDTLPGYMLNSLVWCGQRANPGFNEKVCPDFKTCPVQARESFWGMASSSYAHSAEGEVTYMVDGSNPKVPAYRPDSFFGKYELPNLTNKVTRVKVIVLHRLGEKIIEKCGAGSLLDLEKLVKAKHFAFDCVENPRAVLFLLCSDNPNARECRLAKRFYRIA
notes: 5×10^-9 M ovotestis NADase were incubated in 300 mM potassium phosphate buffer; from tissue; host or cells: ovotestis (Aplysia)
Work on B1 yielded a Km [4] of 700 µM.
